Experimental data from the supplement of paper PMC11424490.
Counter-ions that a name gives are not always drawn.

Tests used:
NCI-H2122 [1] = experiment: combination cScore with adagrasib (Bliss gap around IC50) (%PoC); higher = stronger additive effect
Method: (§1)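 Combination screen of 179 inhibitors with the KRAS G12C inhibitor adagrasib (MRTX849) in dose matrices, CellTiter-Glo readout in NCI-H2122 (72 h), SW837 (144 h) and NCI-H358 cells. The cScore is the mean Bliss-independence gap (expected minus observed viability, in %PoC) over a 3x3 field around the IC50s of both drugs. Positive means additive, and >~10 is stated as clear additive.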

SW837 [2] = experiment: as above
Method: as §1

NCI-H2122 [3] = experiment: combination cScore with sotorasib (Bliss gap around IC50) (%PoC); higher = stronger additive effect
Method: as §1, with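 “sotorasib (AMG510)” for “adagrasib (MRTX849)”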

NCI-H2122 [4] = experiment: fitted bottom plateau of viability curve, % of DMSO control; higher = less maximal inhibition; extreme values may be limits of the assay
Method: (§2)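 CellTiter-Glo proliferation assay in KRAS G12C mutant NCI-H2122 (72 h), SW837 (144 h) and NCI-H358 cells in 384-well plates. Monotherapy dose response was fitted with a four-parameter curve after normalisation to DMSO controls (% of control, PoC). IC50 is the relative IC50, averaged over replicates. Bottom is the fitted lower plateau in %PoC; Max.Conc. is the top dose tested.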

SW837 [5] = experiment: as above
Method: as §2

| Compound | combination cScore with adagrasib (NCI-H2122 [1]) | combination cScore with adagrasib (SW837 [2]) | combination cScore with sotorasib (NCI-H2122 [3]) | fitted bottom plateau of viability curve (NCI-H2122 [4]) [%] | fitted bottom plateau of viability curve (SW837 [5]) [%] |
| --- | --- | --- | --- | --- | --- |
| CCc1cnn2c(NCc3ccc[n+]([O-])c3)cc(N3CCCC[C@H]3CCO)nc12 + C=C(F)C(=O)N1CCN(c2nc(OC[C@@H]3CCCN3C)nc3c2CCN(c2cccc4cccc(Cl)c24)C3)C[C@@H]1CC#N [adagrasib] | -0.08 | 0.92 |  |  |  |
| Cc1[nH]c(/C=C2\C(=O)Nc3ccc(S(=O)(=O)Cc4c(Cl)cccc4Cl)cc32)c(C)c1C(=O)N1CCC[C@@H]1CN1CCCC1 + C=C(F)C(=O)N1CCN(c2nc(OC[C@@H]3CCCN3C)nc3c2CCN(c2cccc4cccc(Cl)c24)C3)C[C@@H]1CC#N [adagrasib] | 6.94 | -0.48 |  |  |  |
| N[C@H]1CC[C@H](N[C@@H]2C[C@H]2c2ccccc2)CC1 [ORY-1001] + C=CC(=O)N1CCN(c2nc(=O)n(-c3c(C)ccnc3C(C)C)c3nc(-c4c(O)cccc4F)c(F)cc23)[C@@H](C)C1 [sotorasib] |  |  | 8.65 |  |  |
| CCCS(=O)(=O)Nc1ccc(F)c(C(=O)c2c[nH]c3ncc(Cl)cc23)c1F [PLX4720] + C=C(F)C(=O)N1CCN(c2nc(OC[C@@H]3CCCN3C)nc3c2CCN(c2cccc4cccc(Cl)c24)C3)C[C@@H]1CC#N [adagrasib] |  | -5.68 |  |  |  |
| Cc1[nH]c2ccccc2c1CCNCc1ccc(/C=C/C(=O)NO)cc1 [Panobinostat] + C=CC(=O)N1CCN(c2nc(=O)n(-c3c(C)ccnc3C(C)C)c3nc(-c4c(O)cccc4F)c(F)cc23)[C@@H](C)C1 [sotorasib] |  |  | 0.52 |  |  |
| CO[C@H]1C[C@@H]2CC[C@@H](C)[C@@](O)(O2)C(=O)C(=O)N2CCCC[C@H]2C(=O)O[C@H]([C@H](C)C[C@@H]2CC[C@@H](O)[C@H](OC)C2)CC(=O)[C@H](C)/C=C(\C)[C@@H](O)[C@@H](OC)C(=O)[C@H](C)C[C@H](C)/C=C/C=C/C=C/1C [Rapamycin] (top concentration tested 1000 nM) |  |  |  | 64.1 | 88.4 |
| CNC(=O)c1cc(Oc2ccc(NC(=O)Nc3ccc(Cl)c(C(F)(F)F)c3)c(F)c2)ccn1 [Regorafenib] (top concentration tested 999.95 nM) |  |  |  | 82.1 | 92.7 |
| N#CC[C@H](C1CCCC1)n1cc(-c2ncnc3[nH]ccc23)cn1 [Ruxolitinib] (top concentration tested 9999.9 nM) |  |  |  | 73.3 | 88.3 |
| CNC(=O)c1cc(Oc2ccc(NC(=O)Nc3ccc(Cl)c(C(F)(F)F)c3)cc2)ccn1 [Sorafenib] (top concentration tested 999.95 nM) |  |  |  | 84.3 | 92.6 |
| Cn1nnc2c(C(N)=O)ncn2c1=O [Temozolomide] (top concentration tested 50000 nM) |  |  |  | 83.2 | 93.2 |
| C[C@@H]1CCN(C(=O)CC#N)C[C@@H]1N(C)c1ncnc2[nH]ccc12 [Tofacitinib citrate] (top concentration tested 10000 nM) |  |  |  | 63 | 99 |
| CC1=C(/C=C/C(C)=C/C=C/C(C)=C/C(=O)O)C(C)(C)CCC1 [Tretinoin] (top concentration tested 10000 nM) |  |  |  | 78.8 | 105 |
| CC(C)Nc1cc(-c2c[nH]c(C(=O)N[C@H](CO)c3cccc(Cl)c3)c2)c(Cl)cn1 [Ulixertinib] (top concentration tested 99.921 nM) |  |  |  | 64.5 | 97.1 |
| CCCC(CCC)C(=O)O [Valproic acid] (top concentration tested 10000 nM) |  |  |  | 72.1 | 92.8 |
| C[C@]1(c2nc3c(C(N)=O)cccc3[nH]2)CCCN1 [Veliparib] (top concentration tested 10000 nM) |  |  |  | 93.6 | 102 |
| CS(=O)(=O)c1ccc(C(=O)Nc2ccc(Cl)c(-c3ccccn3)c2)c(Cl)c1 [Vismodegib] (top concentration tested 10000 nM) |  |  |  | 91.1 | 103 |
